Measured values from US8017638B2, “Isoxazole derivative and isothiazole derivative having inhibitory activity on 11β-hydroxysteroid dehydrogenase type 1” (Shionogi & Co., Ltd., priority 2006, dated 2011).

Tests used:
[1] = target: recombinant human 11β-HSD1 (Homo sapiens, UniProt P28845); assay: Enzyme activity assay on human 11β-HSD1 (HTRF, cortisol production); type: biochemical; settings: recombinant human 11β-HSD1, 5 μM cortisone as substrate, 2 hours at 37° C., read-out: humanIC50
Method: Evaluation of 11β-HSD1 Inhibitors (Enzyme Activity Assay on Human 11β-HSD1)
Enzymatic activity for human 11β-HSD1 was determined in a 10 μl final volume of assay mixture containing 50 mM sodium phosphate buffer (pH 7.6), 1 mg/ml bovine serum albumin, 0.42 mg/ml NADPH, 1.26 mg/ml glucose-6-phosphate, glucose-6-phosphate dehydrogenase, test compound, recombinant human 11β-HSD1, and 5 μM cortisone as substrate. The reaction was started with the addition of cortisone. After incubation for 2 hours at 37° C., 5 μl of europium cryptate-labelled anti-cortisol antibody and 5 μl of XL665-labeled cortisol were added. After further incubation for 2 hours at room temperature, the homogeneous time-resolved fluorescence (HTRF) signal was measured. The cortisol production was quantitated by a standard curve generated with several known concentrations of cortisol in each assay.
(§1) The amount of cortisol production without compounds served as control, and the percent inhibition by test compound at each concentration was calculated. The IC50 value of the compound for 11β-HSD1 was obtained using the inhibition curve generated by plotting the percent inhibition versus the concentration of test compound.

[2] = target: recombinant mouse 11β-HSD1 (Mus musculus, UniProt P50172); assay: Enzyme activity assay on mouse 11β-HSD1 (HTRF, corticosterone production); type: biochemical; settings: recombinant mouse 11β-HSD1, 2 μM 11-dehydrocorticosterone as substrate, 2 hours at 37° C., read-out: mouseIC50
Method: Evaluation of 11β-HSD1 Inhibitors (Enzyme Activity Assay on Mouse 11β-HSD1)
Enzymatic activity for mouse 11β-HSD1 activity was determined in a 10 μl final volume of assay mixture containing 50 mM sodium phosphate buffer (pH 7.6), 1 mg/ml bovine serum albumin, 0.42 mg/ml NADPH, 1.26 mg/ml glucose-6-phosphate, glucose-6-phosphate dehydrogenase, test compound, recombinant mouse 11β-HSD1, and 2 μM 11-dehydrocorticosterone as substrate. The reaction was started with the addition of 11-dehydrocorticosterone. After incubation for 2 hours at 37° C., 5 μl of europium cryptate-labelled anti-cortisol antibody and 5 μl of XL665-labeled cortisol were added. After further incubation for 2 hours at room temperature, the HTRF signal was measured. The corticosterone production was quantitated by a standard curve generated with several known concentrations of corticosterone in each assay.
as §1, with “corticosterone” for “cortisol”, “by” for “by test”

Sequence of recombinant human 11β-HSD1 (P28845 whole entry): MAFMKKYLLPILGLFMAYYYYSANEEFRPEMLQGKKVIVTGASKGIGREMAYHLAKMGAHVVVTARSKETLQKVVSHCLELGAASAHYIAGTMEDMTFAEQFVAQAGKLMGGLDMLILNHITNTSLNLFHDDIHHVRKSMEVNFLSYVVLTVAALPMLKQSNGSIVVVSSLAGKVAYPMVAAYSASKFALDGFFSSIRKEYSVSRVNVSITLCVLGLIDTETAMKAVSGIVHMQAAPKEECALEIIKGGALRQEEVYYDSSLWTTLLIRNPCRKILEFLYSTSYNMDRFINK
Sequence of recombinant mouse 11β-HSD1 (P50172 whole entry): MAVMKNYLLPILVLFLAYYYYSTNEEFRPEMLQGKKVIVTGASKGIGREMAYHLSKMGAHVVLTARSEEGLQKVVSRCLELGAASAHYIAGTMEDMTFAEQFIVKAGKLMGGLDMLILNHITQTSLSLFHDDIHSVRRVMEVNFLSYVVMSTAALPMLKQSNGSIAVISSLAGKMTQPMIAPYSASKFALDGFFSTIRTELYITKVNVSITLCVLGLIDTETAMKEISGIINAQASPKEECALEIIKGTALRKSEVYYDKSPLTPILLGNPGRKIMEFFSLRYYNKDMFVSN

| IC50 [1] [nM] | IC50 [2] [nM] | SMILES |
| --- | --- | --- |
| 180 | 500 | CCCSc1c(OCC2CCNCC2)noc1C(=O)NC1C2CC3CC(C2)CC1C3 (stereo not drawn) [Compound 9c] |
| 140 | 1600 | CC(C)Sc1c(OCC2CCNCC2)noc1C(=O)NC1C2CCCC1CCC2 (stereo not drawn) [Compound 12b] |
| 260 | 38 | CC(C)Sc1c(OCC(C)(C)NC(=O)NCCN)noc1C(=O)NC1C2CC3CC(C2)CC1C3 (stereo not drawn) [Compound 27] |
| 43 | 330 | CC(C)Sc1c(OCC(C)(C)N)noc1C(=O)NC1C2CC3CC(C2)CC1C3 (stereo not drawn) [Compound 29] |
| 35 | 49 | CC(C)Sc1c(OCC(C)(C)C(=O)N2CCNCC2)noc1C(=O)NC1C2CC3CC(C2)CC1C3 (stereo not drawn) [II-18] |
| 51 | 160 | CC(C)Sc1c(OCC(F)(F)C(=O)NCCN)noc1C(=O)NC1C2CC3CC(C2)CC1C3 (stereo not drawn) [II-25] |
| 71 | 23 | CC(C)Sc1c(OCC(C)(C)NC(=O)C2(N)CC2)noc1C(=O)NC1C2CC3CC(C2)CC1C3 (stereo not drawn) [II-49] |
| 77 | 6.5 | CC(C)CSc1c(OCC(C)(C)CCCN)noc1C(=O)NC1C2CC3CC(C2)CC1C3 (stereo not drawn) [II-72] |
| 95 | 21 | COCC(C)(C)COc1noc(C(=O)NC2C3CC4CC(C3)CC2C4)c1SC(C)C (stereo not drawn) [II-117] |
| 86 | 33 | CC(C)Sc1c(OCC(C)(C)C#N)noc1C(=O)N[C@H]1C2CC3CC1C[C@](O)(C3)C2 [II-130] |
| 10 | 27 | O=C(NC1(COc2noc(C(=O)N[C@H]3C4CC5CC3C[C@](O)(C5)C4)c2SC2CCCC2)CC1)c1ccc(Cl)cc1Cl [II-150] |
| 25 | 14 | CC(C)(COc1noc(C(=O)N[C@H]2C3CC4CC2C[C@](O)(C4)C3)c1SC1CCCC1)N1CCOC1=O [II-153] |
